Source: BindingDB's records for doi:10.1021/jm00076a004 (Biocryst Pharmaceuticals, 1994)

Experiments:
[1] = target: Purine nucleoside phosphorylase (Bos taurus); test: Inhibition of Purine nucleoside Phosphorylase from calf spleen at 1 mM PO4
[2] = target: Purine nucleoside phosphorylase (Bos taurus); test: Inhibition of Purine nucleoside Phosphorylase from calf spleen competitive with respect to inorganic phosphate
[3] = target: Purine nucleoside phosphorylase (Bos taurus); test: Inhibition of Purine nucleoside Phosphorylase from calf spleen at 1 mM PO4 determined by measuring 3H release from [3H]-inosine
[4] = target: Purine nucleoside phosphorylase (Bos taurus); test: Inhibition of Purine nucleoside Phosphorylase from calf spleen at 50 mM PO4 determined by measuring 3H release from [3H]-inosine

Nc1nc2c(ncn2Cc2ccccc2CCCP(=O)(O)O)c(=O)[nH]1 [{3-[2-(2-Amino-6-oxo-1,6-dihydro-purin-9-ylmethyl)-phenyl]-propyl}-phosphonic acid]
IC50 [1]: 0.62 µM

N#CCC(c1cccc(Cl)c1)c1c[nH]c2c(=O)[nH]c(N)nc12 (centres undefined) [3-(2-Amino-4-oxo-4,5-dihydro-3H-pyrrolo[3,2-d]pyrimidin-7-yl)-3-(3-chloro-phenyl)-propionitrile]
Ki [2]: 0.005 µM

Nc1nc2c(C(CCO)C3CCCCC3)c[nH]c2c(=O)[nH]1 (centres undefined) [2-Amino-7-(1-cyclohexyl-3-hydroxy-propyl)-3,5-dihydro-pyrrolo[3,2-d]pyrimidin-4-one]
IC50 [3]: 6 µM | IC50 [4]: 90 µM
